How the values were obtained:
Format in all cases: cell-based, human
STMN2 cryptic exon = assay: RT-PCR detection of transcripts containing the STMN2 cryptic exon in hMNs treated with proteasome inhibitors
Method: It was then asked if cryptic exon inclusion could be contributing to decreased STMN2 levels in hMNs after proteasome inhibition. To accomplish this goal, an RT-PCR assay was developed to detect transcripts containing the cryptic exon (FIG. 5F). […] Total RNA was isolated from neurons using RNeasy Mini Kit (Qiagen) according to manufacturer's instructions. A total of 300-1000 ng of total RNA was used to synthesize cDNA by reverse transcription according to the iSCRIPT kit (Bio-rad). RT-PCR was then performed using one cryptic exon-specific primer and then analyzed using the Agilent 2200 Tapestation.

hMNs = assay: neurite outgrowth, Sholl analysis of hMNs; settings: 10 μM; STMN2+/+ and STMN2−/− hMNs
Method: Given the reported role of STMN2 in regulating axonal growth by promoting the dynamic instability of microtubules (77), phenotypic assays were carried out characterizing neurite outgrowth in the STMN2−/− hMNs. After 7 days in culture, sorted hMNs were fixed and stained for β-III-tubulin to label the neuronal processes (FIG. 4E).
Individual Tuj1-positive neurons used for Sholl analyses were randomly selected and imaged using a Nikon Eclipse TE300 with a 40× objective. The neurites were traced using the ImageJ (NIH) plugin NeuronJ (78), and Sholl analysis was performed using the Sholl tool of Fiji (96), quantifying the number of intersections at intervals from the cell body. Statistical analysis was performed by comparing the number of intersections of KO clones with the parental WT line for each 10 μm interval using Prism 6 (Graph Pad, La Jolla, CA, USA). Significance was assessed by a standard Student's t-test, with a p value of p<0.05 considered as significant.

patient's motor neurons = assay: axonal regrowth after axotomy in microfluidic devices, TDP-43 depleted patient's motor neurons; settings: for axon extension from the microchannel (regrowth after injury), mean values / axonal regrowth after injury relative to the non-targeting control ASO: patient's motor neurons treated with siTARDBP, 18 hours after axotomy; for neurite outgrowth deficits following TDP-43 depletion: FIG. 92
Method: Sorted motor neurons were cultured in standard neuron microfluidic devices (SND150, XONA Microfluidics) mounted on glass coverslips coated with 0.1 mg/ml poly-D-lysine (Sigma-Aldrich) and 5 μg/ml laminin (Invitrogen) at a concentration of around 250,000 neurons/device. Axotomy was performed at day 7 of culture by repeated vacuum aspiration and reperfusion of the axon chamber until axons were cut effectively without disturbing cell bodies in the soma compartment.
To test if ASO SJ+94 could rescue axonal regrowth after TDP-43 depletion and injury, the patient's motor neurons were cultured in microfluidic devices that permitted axon growth into a chamber distinct from the neuronal cell bodies (FIG. 91A). Neurons cultured for 7 days in the soma compartment of the device extended axons through the microchannels into the axon chamber. Neurons were treated with siTARDBP and ASO SJ+94 before severing axons without disturbing cell bodies in the soma compartment. The axon extension was then measured from the microchannel to assess regrowth after injury (FIG. 91B, FIG. 91D).

STMN2 protein = assay: immunoblot of STMN2 protein levels in patient's motor neurons following reduction of TDP-43 by siRNA; settings: patient's motor neurons after TDP-43 reduction by siRNA; compared to NTC / siRNA controls
Method: For analysis of TDP-43 and STMN2 protein expression levels, d10 MNs were lysed in RIPA buffer (150 mM Sodium Chloride; 1% Triton X-100; 0.5% sodium deoxycholate; 0.1% SDS; 50 mM Tris pH 8.0) containing protease and phosphatase inhibitors (Roche) for 20 min on ice, and centrifuged at high speed. 200 μL of RIPA buffer per well of 24-well culture were routinely used, which yielded ˜20 μg of total protein as determined by BCA (Thermo Scientific). After two washes with RIPA buffer, insoluble pellets were resuspended in 200 μl of UREA buffer (Bio-Rad). For immunoblot assays 2-3 μg of total protein were separated by SDS-PAGE (BioRad), transferred to PDVF membranes (BioRad) and probed with antibodies against TDP-43 (1:1000, ProteinTech Group), GAPDH (1:1000, Millipore) and STMN2 (1:3000, Novus). Insoluble pellets were loaded based on protein concentration of correspondent RIPA-soluble counterparts. The same PDVF membrane was immunoassayed 2-3 times using Restore™ PLUS Western Blot Stripping Buffer (Thermo Scientific). GAPDH levels were used to normalized each sample, and LiCor software was used to quantitate protein band signal.
After establishing and validating that the STMN2 ASOs could affect transcript levels, it was sought to determine if they could also rescue diminished protein levels observed after TDP-43 reduction. The patient's motor neurons were treated with siRNAs and either a nontargeting ASO (NTC) or one of the lead compounds from the screen (FIG. 90, FIG. 97). […] Unlike the cells treated with the non-targeting control ASO (NTC), restoration of STMN2 to the levels of the siRNA controls for the lead candidates was observed.

STMN2 RNA = assay: qRT-PCR of full-length STMN2 after proteasome inhibition with MG-132 in patient's motor neurons; settings: patient's motor neurons; MG-132 (1 uM)
Excerpt: It was established that ASO (SJ+94) and ASO (SJ-1) suppressed cryptic splicing of STMN2 and restored full length STMN2 RNA in the patient's motor neurons when there is a reduction in nuclear TDP-43. […] Post-mortem tissue studies have shown that TDP-43 mis-localization and its aggregation in cytoplasm is a hallmark of sporadic ALS. Several groups have reported cytoplasmic aggregation of TDP-43 akin to that observed in post-mortem tissue of sporadic ALS patients occurs in response to pharmacological inhibition of the proteasome (1, 4).

STMN2 transcript = assay: qRT-PCR of truncated (cryptic) and full-length STMN2 RNA in patient's motor neurons treated with siTARDBP and ASOs; settings: for STMN2 in TDP-43 depleted neurons: FIG. 93; for cry STMN2 in TDP-43 depleted neurons: FIG. 94; for cryptic STMN2 RNA levels (cryptic splicing) / full-length STMN2 RNA levels: patient's motor neurons treated with siTARDBP, ASO 30 nM to 0.03 nM, qRT-PCR normalized using RNA18S5, relative to NTC
Method: In total, 51 ASOs were screened in the patient's motor neurons for their ability to (1) suppress the generation of truncated STMN2 transcript as well as (2) restore the full-length STMN2 transcript.
In the first experiment the patient's motor neurons were treated with siTARDBP, the patient's motor neurons were then cultured with the various ASOs over a range of concentrations (ranging from 30 nM to 0.03 nM) before extracting total RNA. Extracted RNA was used to synthesize cDNA by reverse transcription. qRT-PCR was used to assess levels for both truncated and full-length STMN2 RNAs normalized using RNA18S5 expression.

STMN2 = STMN2 multiplexed qPCR assay in neurons after TDP-43 reduction by ASO or siRNA; settings: compared with SCR ASO
Excerpt: FIGS. 17A-17C show RNA can be readily collected from CSF-derived exosomes and then converted into cDNA to assay for full and cryptic STMN2 transcripts as well as control RNAs for normalization (FIG. 17A). […] STMN2 transcripts are normalized to the house keeping ribosomal subunit RNA18S5. TDP-43 levels were reduced in cultured human neurons using either an antisense oligonucleotide (ASO) to deplete cells of TDP-43 or an siRNAs to induce TDP-43 knockdown. […] Using the validated multiplexed qPCR assay, next RNA was isolated from CSF-derived exosomes using 300 ul patient samples to determine the levels of cryptic STMN2 (n=7 healthy controls, n=2 disease mimics and n=9 ALS patients). […] Note that even in this modest set of samples that the increase in cryptic exon expression in ALS patients was highly significant (P<0.005). […] Finally, there is an interesting “texture” to the patient data with some patients showing high levels of expression and others more normal levels. It is hypothesized that patients with lower levels may either be earlier in their disease or have non-TDP-43 disease.

CC(C)C[C@H](NC(=O)[C@H](Cc1ccccc1)NC(=O)c1cnccn1)B(O)O [Bortezomib]
transcripts containing the STMN2 cryptic exon (PCR assay) (STMN2 cryptic exon): presence of transcripts containing the STMN2 cryptic exon

C[C@@H](N)[C@H]1CC[C@H](C(=O)Nc2ccncc2)CC1 [Y-27632]
neurite outgrowth (Sholl analysis) (hMNs): enhancing the outgrowth of the STMN^+/+ line but not the STMN^−/− line

NTC: non-targeting control ASO CCTATAGGACTATCCAGGAA (chemistry not given here) [reference compound]
axon extension from the microchannel (regrowth after injury), mean values (patient's motor neurons): 176 um

SJ+94: antisense oligonucleotide CATTTCTTCTTAGGCAGGCT, fully modified with MOE sugars and phosphorothioate linkages (all 2'-MOE, all phosphorothioate, methylation of C not given here)
STMN2 protein levels (STMN2 protein): increase is significant | full length STMN2 RNA levels compared to non-targeting control ASO (NTC) (STMN2 RNA): significantly higher levels of full length STMN2 RNA | neurite outgrowth deficits following TDP-43 depletion (patient's motor neurons): rescued | axonal regrowth after injury relative to the non-targeting control ASO (patient's motor neurons): significantly increased regrowth | STMN2 in TDP-43 depleted neurons (STMN2 transcript): restored | cry STMN2 in TDP-43 depleted neurons (STMN2 transcript): reduced | cryptic STMN2 RNA levels (cryptic splicing) (STMN2 transcript): suppress cryptic splicing | full-length STMN2 RNA levels (STMN2 transcript): restore full length STMN2 RNA

SJ+101: antisense oligonucleotide TTCACATTCATTTCTTCTTAG, fully modified with MOE sugars and phosphorothioate linkages (all 2'-MOE, all phosphorothioate, methylation of C not given here)
STMN2 protein levels (STMN2 protein): increase is significant | neurite outgrowth deficits following TDP-43 depletion (patient's motor neurons): rescued | STMN2 in TDP-43 depleted neurons (STMN2 transcript): restored | cry STMN2 in TDP-43 depleted neurons (STMN2 transcript): reduced

SJ-1: antisense oligonucleotide AGGTCTTCTGCCGAGTC C, fully modified with MOE sugars and phosphorothioate linkages (antisense AGGTCTTCTGCCGAGTCC; all 2'-MOE, all phosphorothioate, methylation of C not given here)
STMN2 protein levels (STMN2 protein): increase is significant | full-length STMN2 RNA levels, higher than non-targeting control ASO (NTC) (STMN2 RNA): 30% | neurite outgrowth deficits following TDP-43 depletion (patient's motor neurons): rescued | axon extension from the microchannel (regrowth after injury), mean values (patient's motor neurons): 243 um | axonal regrowth after injury relative to the non-targeting control ASO (patient's motor neurons): significantly increased regrowth | STMN2 in TDP-43 depleted neurons (STMN2 transcript): restored | cry STMN2 in TDP-43 depleted neurons (STMN2 transcript): reduced | cryptic STMN2 RNA levels (cryptic splicing) (STMN2 transcript): suppressing cryptic splicing | full-length STMN2 RNA levels (STMN2 transcript): restoring full length STMN2 RNA

TDP-43 ASO: antisense oligonucleotide to deplete cells of TDP-43, AAGGCTTCATATTGTACTTT (chemistry not given here)
relative expression of STMN2 (Exons 3-4) (STMN2): STMN2 reduction | relative expression of cryptic STMN2 (STMN2): cryptic exon induction

Reference: patent publication US20240011027A1, “METHODS AND COMPOSITIONS FOR RESTORING STMN2 LEVELS” (President and Fellows of Harvard College, priority 2020, published 2024)
